Data published in patent US20100267561A1, “HERBICIDAL PYRIDAZINONE DERIVATIVES” (priority 2007, published 2010).

Legend:
Assay in all cases: Test E pre-/postemergence plant response
Format in all cases: in vivo
[1] = test system: bermudagrass (Cynodon dactylon); conditions: scale 0 to 100
In short: (§1)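 In this greenhouse assay, sown seeds received preemergence treatment and young plants of 2 to 18 cm (1- to 4-leaf stage) received postemergence treatment, both with compound in a non-phytotoxic solvent and surfactant vehicle. Effects were rated visually 14 to 21 days later on a 0–100 control scale.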

[2] = test system: goosegrass (Eleusine indica); conditions: scale 0 to 100
In short: as §1

[3] = test system: pitted morningglory (Ipomoea lacunosa); conditions: scale 0 to 100
In short: as §1

[4] = test system: common groundsel (Senecio vulgaris); conditions: Postemergence, scale 0 to 100
In short: as §1

[5] = test system: purple nutsedge (Cyperus rotundus); conditions: scale 0 to 100
In short: as §1

[6] = test system: itchgrass (Rottboellia cochinchinensis); conditions: scale 0 to 100
In short: as §1

[7] = test system: surinam grass (Brachiaria decumbens); conditions: scale 0 to 100
In short: as §1

[8] = test system: common mallow (Malva sylvestris); conditions: Postemergence, scale 0 to 100
In short: as §1

[9] = test system: common purslane (Portulaca oleracea); conditions: scale 0 to 100
In short: as §1

[10] = test system: green foxtail (Setaria viridis); conditions: scale 0 to 100
In short: as §1

[11] = test system: quackgrass (Elytrigia repens); conditions: scale 0 to 100
In short: as §1

[12] = test system: johnsongrass (Sorghum halepense); conditions: scale 0 to 100
In short: as §1

[13] = test system: Italian ryegrass (Lolium multiflorum); conditions: scale 0 to 100
In short: as §1

[14] = test system: southern (S.) sandbur (Cenchrus echinatus); conditions: scale 0 to 100
In short: as §1

[15] = test system: guineagrass (Panicum maximum); conditions: scale 0 to 100
In short: as §1

[16] = test system: black mustard (Brassica nigra); conditions: scale 0 to 100
In short: as §1

[17] = test system: annual bluegrass (Poa annua); conditions: scale 0 to 100
In short: as §1

CCc1cc(-c2ccc(Cl)cc2)nn1-c1c(O)cnn(C)c1=O [Compound 21]
85: Plant response rating, Johnsongrass ([12]; Postemergence, 31 g ai/ha)
35: Plant response rating, Quackgrass ([11]; Postemergence, 16 g ai/ha)
98: Plant response rating, Goosegrass ([2]; Postemergence, 62 g ai/ha) | Plant response rating, Ryegrass, Italian ([13]; Postemergence, 16 g ai/ha) | Plant response rating, Sandbur, S. ([14]; 16 g ai/ha, Preemergence) | Plant response rating, Guineagrass ([15]; Postemergence, 16 g ai/ha)
75: Plant response rating, Bermudagrass ([1]; Postemergence, 62 g ai/ha) | Plant response rating, Goosegrass ([2]; Postemergence, 8 g ai/ha) | Plant response rating, Itchgrass ([6]; 31 g ai/ha, Preemergence) | Plant response rating, Itchgrass ([6]; Postemergence, 31 g ai/ha) | Plant response rating, Itchgrass ([6]; Postemergence, 62 g ai/ha) | Plant response rating, Foxtail, Green ([10]; 8 g ai/ha, Preemergence) | Plant response rating, Foxtail, Green ([10]; Postemergence, 16 g ai/ha) | Plant response rating, Johnsongrass ([12]; 16 g ai/ha, Preemergence)
40: Plant response rating, Bermudagrass ([1]; 8 g ai/ha, Preemergence) | Plant response rating, Bermudagrass ([1]; Postemergence, 8 g ai/ha) | Plant response rating, Quackgrass ([11]; Postemergence, 31 g ai/ha)
100: Plant response rating, Bermudagrass ([1]; 62 g ai/ha, Preemergence) | Plant response rating, Goosegrass ([2]; 16 g ai/ha, Preemergence) | Plant response rating, Goosegrass ([2]; 31 g ai/ha, Preemergence) | Plant response rating, Goosegrass ([2]; 62 g ai/ha, Preemergence) | Plant response rating, Surinam Grass ([7]; 16 g ai/ha, Preemergence) | Plant response rating, Surinam Grass ([7]; 31 g ai/ha, Preemergence) | Plant response rating, Surinam Grass ([7]; 62 g ai/ha, Preemergence) | Plant response rating, Surinam Grass ([7]; Postemergence, 31 g ai/ha) | Plant response rating, Surinam Grass ([7]; Postemergence, 62 g ai/ha) | Plant response rating, Foxtail, Green ([10]; 16 g ai/ha, Preemergence) | Plant response rating, Foxtail, Green ([10]; 31 g ai/ha, Preemergence) | Plant response rating, Foxtail, Green ([10]; 62 g ai/ha, Preemergence) | Plant response rating, Foxtail, Green ([10]; Postemergence, 62 g ai/ha) | Plant response rating, Johnsongrass ([12]; Postemergence, 62 g ai/ha) | Plant response rating, Ryegrass, Italian ([13]; 16 g ai/ha, Preemergence) | Plant response rating, Ryegrass, Italian ([13]; 31 g ai/ha, Preemergence) | Plant response rating, Ryegrass, Italian ([13]; 62 g ai/ha, Preemergence) | Plant response rating, Ryegrass, Italian ([13]; Postemergence, 31 g ai/ha) | Plant response rating, Ryegrass, Italian ([13]; Postemergence, 62 g ai/ha) | Plant response rating, Sandbur, S. ([14]; 31 g ai/ha, Preemergence) | Plant response rating, Sandbur, S. ([14]; 62 g ai/ha, Preemergence) | Plant response rating, Sandbur, S. ([14]; Postemergence, 62 g ai/ha) | Plant response rating, Guineagrass ([15]; 16 g ai/ha, Preemergence) | Plant response rating, Guineagrass ([15]; 31 g ai/ha, Preemergence) | Plant response rating, Guineagrass ([15]; 62 g ai/ha, Preemergence) | Plant response rating, Guineagrass ([15]; Postemergence, 31 g ai/ha) | Plant response rating, Guineagrass ([15]; Postemergence, 62 g ai/ha)
95: Plant response rating, Bermudagrass ([1]; 31 g ai/ha, Preemergence) | Plant response rating, Goosegrass ([2]; 8 g ai/ha, Preemergence) | Plant response rating, Surinam Grass ([7]; Postemergence, 8 g ai/ha) | Plant response rating, Surinam Grass ([7]; Postemergence, 16 g ai/ha) | Plant response rating, Foxtail, Green ([10]; Postemergence, 31 g ai/ha) | Plant response rating, Quackgrass ([11]; 62 g ai/ha, Preemergence) | Plant response rating, Johnsongrass ([12]; 62 g ai/ha, Preemergence) | Plant response rating, Sandbur, S. ([14]; Postemergence, 31 g ai/ha) | Plant response rating, Guineagrass ([15]; Postemergence, 8 g ai/ha)
90: Plant response rating, Bermudagrass ([1]; 16 g ai/ha, Preemergence) | Plant response rating, Goosegrass ([2]; Postemergence, 31 g ai/ha) | Plant response rating, Quackgrass ([11]; 31 g ai/ha, Preemergence) | Plant response rating, Johnsongrass ([12]; 31 g ai/ha, Preemergence)
50: Plant response rating, Bermudagrass ([1]; Postemergence, 16 g ai/ha) | Plant response rating, Itchgrass ([6]; Postemergence, 8 g ai/ha) | Plant response rating, Quackgrass ([11]; 16 g ai/ha, Preemergence) | Plant response rating, Johnsongrass ([12]; Postemergence, 8 g ai/ha)
65: Plant response rating, Bermudagrass ([1]; Postemergence, 31 g ai/ha) | Plant response rating, Itchgrass ([6]; 16 g ai/ha, Preemergence) | Plant response rating, Itchgrass ([6]; Postemergence, 16 g ai/ha) | Plant response rating, Foxtail, Green ([10]; Postemergence, 8 g ai/ha) | Plant response rating, Johnsongrass ([12]; Postemergence, 16 g ai/ha)
15: Plant response rating, Bluegrass ([17]; Postemergence, 62 g ai/ha)
80: Plant response rating, Goosegrass ([2]; Postemergence, 16 g ai/ha) | Plant response rating, Itchgrass ([6]; 62 g ai/ha, Preemergence) | Plant response rating, Quackgrass ([11]; Postemergence, 62 g ai/ha) | Plant response rating, Ryegrass, Italian ([13]; Postemergence, 8 g ai/ha) | Plant response rating, Sandbur, S. ([14]; Postemergence, 8 g ai/ha) | Plant response rating, Sandbur, S. ([14]; Postemergence, 16 g ai/ha)
0: Plant response rating, Morningglory ([3]; 16 g ai/ha, Preemergence) | Plant response rating, Morningglory ([3]; 31 g ai/ha, Preemergence) | Plant response rating, Morningglory ([3]; 62 g ai/ha, Preemergence) | Plant response rating, Morningglory ([3]; Postemergence, 8 g ai/ha) | Plant response rating, Morningglory ([3]; Postemergence, 16 g ai/ha) | Plant response rating, Morningglory ([3]; Postemergence, 31 g ai/ha) | Plant response rating, Morningglory ([3]; Postemergence, 62 g ai/ha) | Plant response rating, Groundsel ([4]; 8 g ai/ha) | Plant response rating, Groundsel ([4]; 62 g ai/ha) | Plant response rating, Nutsedge, Purple ([5]; 16 g ai/ha, Preemergence) | Plant response rating, Nutsedge, Purple ([5]; 31 g ai/ha, Preemergence) | Plant response rating, Nutsedge, Purple ([5]; 62 g ai/ha, Preemergence) | Plant response rating, Nutsedge, Purple ([5]; Postemergence, 8 g ai/ha) | Plant response rating, Nutsedge, Purple ([5]; Postemergence, 16 g ai/ha) | Plant response rating, Nutsedge, Purple ([5]; Postemergence, 31 g ai/ha) | Plant response rating, Nutsedge, Purple ([5]; Postemergence, 62 g ai/ha) | Plant response rating, Mallow ([8]; 8 g ai/ha) | Plant response rating, Mallow ([8]; 16 g ai/ha) | Plant response rating, Mallow ([8]; 31 g ai/ha) | Plant response rating, Mallow ([8]; 62 g ai/ha) | Plant response rating, Purslane ([9]; 16 g ai/ha, Preemergence) | Plant response rating, Purslane ([9]; 31 g ai/ha, Preemergence) | Plant response rating, Purslane ([9]; 62 g ai/ha, Preemergence) | Plant response rating, Purslane ([9]; Postemergence, 8 g ai/ha) | Plant response rating, Purslane ([9]; Postemergence, 16 g ai/ha) | Plant response rating, Purslane ([9]; Postemergence, 31 g ai/ha) | Plant response rating, Purslane ([9]; Postemergence, 62 g ai/ha) | Plant response rating, Mustard, Black ([16]; 8 g ai/ha, Preemergence) | Plant response rating, Mustard, Black ([16]; 16 g ai/ha, Preemergence) | Plant response rating, Mustard, Black ([16]; 31 g ai/ha, Preemergence) | Plant response rating, Mustard, Black ([16]; 62 g ai/ha, Preemergence) | Plant response rating, Mustard, Black ([16]; Postemergence, 8 g ai/ha) | Plant response rating, Mustard, Black ([16]; Postemergence, 16 g ai/ha) | Plant response rating, Mustard, Black ([16]; Postemergence, 31 g ai/ha) | Plant response rating, Mustard, Black ([16]; Postemergence, 62 g ai/ha) | Plant response rating, Bluegrass ([17]; 8 g ai/ha, Preemergence) | Plant response rating, Bluegrass ([17]; 16 g ai/ha, Preemergence) | Plant response rating, Bluegrass ([17]; 31 g ai/ha, Preemergence) | Plant response rating, Bluegrass ([17]; 62 g ai/ha, Preemergence) | Plant response rating, Bluegrass ([17]; Postemergence, 8 g ai/ha) | Plant response rating, Bluegrass ([17]; Postemergence, 16 g ai/ha)
10: Plant response rating, Bluegrass ([17]; Postemergence, 31 g ai/ha)
20: Plant response rating, Quackgrass ([11]; Postemergence, 8 g ai/ha)
